Assay results reported in ChEMBL document CHEMBL3044763, “Inhibitory Activities of Rhodanine Derivatives on Plant Growth” (Biosci Biotechnol Biochem, 1996).

Legend:
[1] = Toxicity in Mus musculus ddY (mouse) assessed as mortality at 7 mg/kg, ip after 6 days; format: organism-based; set-up: dose 7 mg/kg, route intraperitoneal; conditions: in vivo
[2] = Toxicity in Mus musculus ddY (mouse) assessed as mortality at 4 mg/kg, ip after 1 day; format: organism-based; set-up: dose 4 mg/kg, route intraperitoneal; conditions: in vivo
Allium tuberosum [3] = experiment: Growth inhibition of Allium tuberosum assessed as root growth at 5 x 10^-5 M after 10 days; format: functional
[4] = Toxicity in Mus musculus ddY (mouse) assessed as mortality at 6 mg/kg, ip after 3 days; format: organism-based; set-up: dose 6 mg/kg, route intraperitoneal; conditions: in vivo
Allium tuberosum [5] = experiment: Growth inhibition of Allium tuberosum assessed as root growth at 3 x 10^-4 M after 10 days; format: functional
[6] = Toxicity in Mus musculus ddY (mouse) assessed as mortality at 3 mg/kg, ip after 6 days; format: organism-based; set-up: dose 3 mg/kg, route intraperitoneal; conditions: in vivo
[7] = Toxicity in Mus musculus ddY (mouse) assessed as mortality at 7 mg/kg, ip after 3 days; format: organism-based; set-up: dose 7 mg/kg, route intraperitoneal; conditions: in vivo
[8] = Toxicity in Mus musculus ddY (mouse) assessed as mortality at 5 mg/kg, ip after 7 days; format: organism-based; set-up: dose 5 mg/kg, route intraperitoneal; conditions: in vivo
[9] = tested on: Brassica rapa subsp. oleifera; experiment: Growth inhibition of Brassica rapa subsp. oleifera assessed as chlorophyll b level at 3 x 10^-4 M after 7 days; format: functional; set-up: scale not given: the % may be the effect or the level left
Daucus carota [10] = experiment: Growth inhibition of Daucus carota (carrot) assessed as root growth at 3 x 10^-4 M after 7 days; format: functional
[11] = Toxicity in Mus musculus ddY (mouse) assessed as mortality at 3 mg/kg, ip after 3 days; format: organism-based; set-up: dose 3 mg/kg, route intraperitoneal; conditions: in vivo
[12] = tested on: Brassica rapa subsp. oleifera; experiment: Growth inhibition of Brassica rapa subsp. oleifera assessed as total chlorophyll level at 1 x 10^-4 M after 7 days; format: functional; set-up: scale not given: the % may be the effect or the level left
[13] = Toxicity in Mus musculus ddY (mouse) assessed as mortality at 6 mg/kg, ip after 1 day; format: organism-based; set-up: dose 6 mg/kg, route intraperitoneal; conditions: in vivo
[14] = tested on: Brassica rapa subsp. oleifera; experiment: Growth inhibition of Brassica rapa subsp. oleifera assessed as chlorophyll b level at 1 x 10^-4 M after 7 days; format: functional; set-up: scale not given: the % may be the effect or the level left
Sesamum indicum [15] = experiment: Growth inhibition of Sesamum indicum (sesame) assessed as root growth at 3 x 10^-5 M after 7 days; format: functional
[16] = Toxicity in Mus musculus ddY (mouse) assessed as mortality at 8 mg/kg, ip after 2 days; format: organism-based; set-up: dose 8 mg/kg, route intraperitoneal; conditions: in vivo
Daucus carota [17] = experiment: Growth inhibition of Daucus carota (carrot) assessed as root growth at 5 x 10^-5 M after 7 days; format: functional
[18] = tested on: Brassica rapa subsp. oleifera; experiment: Growth inhibition of Brassica rapa subsp. oleifera assessed as chlorophyll a level at 3 x 10^-4 M after 7 days; format: functional; set-up: scale not given: the % may be the effect or the level left
Lactuca sativa [19] = experiment: Growth inhibition of Lactuca sativa (lettuce) assessed as root growth at 3 x 10^-5 M after 7 days; format: functional
[20] = Toxicity in Mus musculus ddY (mouse) assessed as mortality at 7 mg/kg, ip after 4 days; format: organism-based; set-up: dose 7 mg/kg, route intraperitoneal; conditions: in vivo
[21] = Toxicity in Mus musculus ddY (mouse) assessed as mortality at 3 mg/kg, ip after 7 days; format: organism-based; set-up: dose 3 mg/kg, route intraperitoneal; conditions: in vivo
[22] = tested on: Brassica rapa subsp. oleifera; experiment: Growth inhibition of Brassica rapa subsp. oleifera assessed as chlorophyll a level at 3 x 10^-5 M after 7 days; format: functional; set-up: scale not given: the % may be the effect or the level left
[23] = Toxicity in Mus musculus ddY (mouse) assessed as mortality at 3 mg/kg, ip after 4 days; format: organism-based; set-up: dose 3 mg/kg, route intraperitoneal; conditions: in vivo
Echinochloa esculenta [24] = experiment: Growth inhibition of Echinochloa esculenta assessed as root growth at 1 x 10^-4 M after 7 days; format: functional
[25] = Toxicity in Mus musculus ddY (mouse) assessed as mortality at 8 mg/kg, ip after 4 days; format: organism-based; set-up: dose 8 mg/kg, route intraperitoneal; conditions: in vivo
[26] = Toxicity in Mus musculus ddY (mouse) assessed as mortality at 4 mg/kg, ip after 7 days; format: organism-based; set-up: dose 4 mg/kg, route intraperitoneal; conditions: in vivo
[27] = tested on: Brassica rapa subsp. oleifera; experiment: Growth inhibition of Brassica rapa subsp. oleifera assessed as total chlorophyll level at 3 x 10^-5 M after 7 days; format: functional; set-up: scale not given: the % may be the effect or the level left
[28] = Toxicity in Mus musculus ddY (mouse) assessed as mortality at 5 mg/kg, ip after 1 day; format: organism-based; set-up: dose 5 mg/kg, route intraperitoneal; conditions: in vivo
[29] = Toxicity in Mus musculus ddY (mouse) assessed as mortality at 3 mg/kg, ip after 1 day; format: organism-based; set-up: dose 3 mg/kg, route intraperitoneal; conditions: in vivo
[30] = Toxicity in Mus musculus ddY (mouse) assessed as mortality at 8 mg/kg, ip after 3 days; format: organism-based; set-up: dose 8 mg/kg, route intraperitoneal; conditions: in vivo
Echinochloa esculenta [31] = experiment: Growth inhibition of Echinochloa esculenta assessed as root growth at 3 x 10^-4 M after 7 days; format: functional
[32] = Toxicity in Mus musculus ddY (mouse) assessed as mortality at 5 mg/kg, ip after 6 days; format: organism-based; set-up: dose 5 mg/kg, route intraperitoneal; conditions: in vivo
[33] = Toxicity in Mus musculus ddY (mouse) assessed as mortality at 6 mg/kg, ip after 5 days; format: organism-based; set-up: dose 6 mg/kg, route intraperitoneal; conditions: in vivo
Allium tuberosum [34] = experiment: Growth inhibition of Allium tuberosum assessed as root growth at 1 x 10^-4 M after 10 days; format: functional
Lactuca sativa [35] = experiment: Growth inhibition of Lactuca sativa (lettuce) assessed as root growth at 5 x 10^-5 M after 7 days; format: functional
[36] = Toxicity in Mus musculus ddY (mouse) assessed as mortality at 8 mg/kg, ip after 6 days; format: organism-based; set-up: dose 8 mg/kg, route intraperitoneal; conditions: in vivo
[37] = tested on: Brassica rapa subsp. oleifera; experiment: Growth inhibition of Brassica rapa subsp. oleifera assessed as chlorophyll b level at 5 x 10^-5 M after 7 days; format: functional; set-up: scale not given: the % may be the effect or the level left
Allium tuberosum [38] = experiment: Growth inhibition of Allium tuberosum assessed as root growth at 3 x 10^-5 M after 10 days; format: functional
[39] = Toxicity in Mus musculus ddY (mouse) assessed as mortality at 7 mg/kg, ip after 1 day; format: organism-based; set-up: dose 7 mg/kg, route intraperitoneal; conditions: in vivo
[40] = Toxicity in Mus musculus ddY (mouse) assessed as mortality at 5 mg/kg, ip after 5 days; format: organism-based; set-up: dose 5 mg/kg, route intraperitoneal; conditions: in vivo
[41] = Toxicity in Mus musculus ddY (mouse) assessed as mortality at 3 mg/kg, ip after 5 days; format: organism-based; set-up: dose 3 mg/kg, route intraperitoneal; conditions: in vivo
[42] = tested on: Brassica rapa subsp. oleifera; experiment: Growth inhibition of Brassica rapa subsp. oleifera assessed as total chlorophyll level at 3 x 10^-4 M after 7 days; format: functional; set-up: scale not given: the % may be the effect or the level left
[43] = Toxicity in Mus musculus ddY (mouse) assessed as mortality at 6 mg/kg, ip after 6 days; format: organism-based; set-up: dose 6 mg/kg, route intraperitoneal; conditions: in vivo
Sesamum indicum [44] = experiment: Growth inhibition of Sesamum indicum (sesame) assessed as root growth at 3 x 10^-4 M after 7 days; format: functional
[45] = Toxicity in Mus musculus ddY (mouse) assessed as mortality at 8 mg/kg, ip after 7 days; format: organism-based; set-up: dose 8 mg/kg, route intraperitoneal; conditions: in vivo
[46] = tested on: Brassica rapa subsp. oleifera; experiment: Growth inhibition of Brassica rapa subsp. oleifera assessed as chlorophyll b level at 3 x 10^-5 M after 7 days; format: functional; set-up: scale not given: the % may be the effect or the level left
Lactuca sativa [47] = experiment: Growth inhibition of Lactuca sativa (lettuce) assessed as root growth at 3 x 10^-4 M after 7 days; format: functional
[48] = Toxicity in Mus musculus ddY (mouse) assessed as mortality at 7 mg/kg, ip after 2 days; format: organism-based; set-up: dose 7 mg/kg, route intraperitoneal; conditions: in vivo
[49] = Toxicity in Mus musculus ddY (mouse) assessed as mortality at 3 mg/kg, ip after 2 days; format: organism-based; set-up: dose 3 mg/kg, route intraperitoneal; conditions: in vivo
Lactuca sativa [50] = experiment: Growth inhibition of Lactuca sativa (lettuce) assessed as root growth at 1 x 10^-4 M after 7 days; format: functional
Sesamum indicum [51] = experiment: Growth inhibition of Sesamum indicum (sesame) assessed as root growth at 1 x 10^-4 M after 7 days; format: functional
[52] = Toxicity in Mus musculus ddY (mouse) assessed as mortality at 7 mg/kg, ip after 7 days; format: organism-based; set-up: dose 7 mg/kg, route intraperitoneal; conditions: in vivo

In the case of NN1C(=O)CSC1=S [AMINORHODANINE], the mortality at 144 h [1] was 80%, the mortality at 24 h [2] was 20% and the Activity (Allium tuberosum [3]) was 8.6 mm. It also gave a mortality at 72 h [4] of 60%, an Activity (Allium tuberosum [5]) of 1.4 mm and a mortality at 144 h [6] of 0%. For the same molecule, the mortality at 72 h [7] was 80%, the mortality at 168 h [8] was 60% and the Activity [9] was 3.4%. The Activity (Daucus carota [10]) was 0 mm, the mortality at 72 h [11] was 0% and the Activity [12] was 11.85%. It also gave a mortality at 24 h [13] of 60%, an Activity [14] of 3.82% and an Activity (Sesamum indicum [15]) of 9.5 mm. The mortality at 48 h [16] was 100%, the Activity (Daucus carota [17]) was 10.8 mm and the Activity [18] was 7.76%. The Activity (Lactuca sativa [19]) was 6.1 mm, the mortality at 96 h [20] was 80% and the mortality at 168 h [21] was 0%. The Activity [22] was 11.07%, the mortality at 96 h [23] was 0% and the Activity (Echinochloa esculenta [24]) was 10.8 mm. For the same molecule, the mortality at 96 h [25] was 100%, the mortality at 168 h [26] was 20% and the Activity [27] was 15.83%. The mortality at 24 h [28] was 60%, the mortality at 24 h [29] was 0% and the mortality at 72 h [30] was 100%. The Activity (Echinochloa esculenta [31]) was 3.1 mm, the mortality at 144 h [32] was 60% and the mortality at 120 h [33] was 60%. It also gave an Activity (Allium tuberosum [34]) of 5.1 mm, an Activity (Lactuca sativa [35]) of 5.9 mm and a mortality at 144 h [36] of 100%. For the same molecule, the Activity [37] was 4.36%, the Activity (Allium tuberosum [38]) was 7 mm and the mortality at 24 h [39] was 80%. It also gave a mortality at 120 h [40] of 60%, a mortality at 120 h [41] of 0% and an Activity [42] of 11.16%. For the same molecule, the mortality at 144 h [43] was 60%, the Activity (Sesamum indicum [44]) was 0 mm and the mortality at 168 h [45] was 100%. The Activity [46] was 4.78%, the Activity (Lactuca sativa [47]) was 0 mm and the mortality at 48 h [48] was 80%. The mortality at 48 h [49] was 0%, the Activity (Lactuca sativa [50]) was 3.2 mm and the Activity (Sesamum indicum [51]) was 3.2 mm. The mortality at 168 h [52] was 80%.
